Assay results published in paper PMC7577153, “Identification of Small-Molecule Inhibitors Targeting Porphyromonas gingivalis Interspecies Adherence and Determination of Their In Vitro and In Vivo Efficacies” (Antimicrobial Agents and Chemotherapy, 2020).
Read-outs that look alike come from different tables or passages of the source.

Assays:
[1] = test system: P. gingivalis adherence to S. gordonii; experiment: organism not typed; assay type: cell-based, Porphyromonas gingivalis; conditions: for dose-dependent inhibition of P. gingivalis adherence and biofilm formation: 5, 10, 15, 25, and 40 μM; for inhibition at 40 µM: read-out: inhibition of P. gingivalis adherence to S. gordonii and biofilm formation
Description: Using the two species biofilm model described by Patil et al. ([19]), the in vitro effectiveness of the compounds was determined by their ability to inhibit P. gingivalis adherence to S. gordonii and subsequent biofilm formation at an initial concentration of 40 μM.
To quantify P. gingivalis adherence to S. gordonii, a two-species biofilm model was employed as previously described ([19], [33]). Briefly, 20 ml of an overnight culture of S. gordonii was centrifuged at 5600 × g (MIKRO 220R, Hettich Zentrifugen) for 10 min, and the harvested cells were washed with phosphate-buffered saline (PBS; 10 mM Na2HPO4, […], […], and 2.7 mM KCl [pH 7.2]). To label S. gordonii, the cell pellet was suspended in 1 ml of PBS containing 20 μl of 5 mg/ml of hexidium iodide (Molecular Probes; Eugene, OR) and incubated in the dark for 15 min at room temperature with gentle shaking. The labeled cells were than centrifuged at 5600 × g for 5 min and washed twice with PBS. Finally, the cells were suspended in PBS to a final optical density at 600 nm (OD600) of 0.6, and 1 ml of labeled S. gordonii cells was added to each well of a 12-well microtiter plate (Greiner Bio-one, Monroe, NC) containing a circular coverslip (Fisher Scientific, Hampton, NH). Plates were incubated at 37°C for 24 h under anaerobic conditions on a rotary shaker. On the following day, cells from a 10-ml overnight P. gingivalis culture were harvested as described above and fluorescent labeling was performed by incubating the cells in 1 ml PBS containing 20 μl of 5(6)-carboxyfluorescein N-hydroxysuccinimide ester (4 mg/ml) (Thermo Fisher, Waltham, MA) for 30 min in the dark at room temperature with gentle shaking. After being washed two times with PBS, the labeled cells were suspended in PBS at a final OD600 of 0.4. While this reaction was carried out, unattached S. gordonii cells were removed from each well by aspiration, and subsequently, 1 ml of labeled P. gingivalis cells alone or with the desired concentration of the compounds to be tested was added to each well of the microtiter plates. Plates were incubated at 37°C for 24 h under anaerobic conditions. The compounds that were tested were initially dissolved in dimethyl sulfoxide (DMSO) to generate a 1,000× stock solution and subsequently diluted in the cell suspensions to obtain the working concentration. For the control wells, DMSO without a test compound was added to a final concentration of 0.1% in order to maintain a constant DMSO concentration in all wells.
Unbound P. gingivalis cells were removed from each well by aspiration, and the coverslips were washed twice with 5 ml of PBS. Biofilms were then fixed with 4% paraformaldehyde for 5 min in the dark and washed two times with 5 ml of PBS. The coverslips were mounted on a glass slide (Sigma-Aldrich) containing a drop of Prolong gold anti-fade agent (Molecular Probes, Eugene, OR) and sealed with transparent nail polish.
Visualization of the biofilms was carried out by laser scanning confocal microscopy using an SP8 confocal microscope (Leica Microsystems, Inc., Buffalo Grove, IL), with the laser source settings at 488 nm and 552 nm to visualize P. gingivalis and S. gordonii, respectively. Images were collected using a Z plane scan for a depth of 25 μm using a Z step thickness of 0.7 μm. Background noise was reduced using the software that was supplied with the Leica SP8 microscope. Three-dimensional reconstruction of the Z plane scans and quantification of the red and green channel fluorescence were performed using Volocity 6.3 image analysis software (PerkinElmer, Waltham, MA).

J774A.1 cells = conditions: 18 h
Description: The mouse macrophage cell line J774A.1 was grown in Dulbecco’s modified Eagle medium (DMEM) (Thermo Fisher Scientific, Waltham, MA) supplemented with 4.5 g/ml glucose, 10% fetal bovine serum (FBS), and 100 U/ml penicillin-streptomycin (Sigma-Aldrich, St. Louis, MO). HL60 (ATCC CCL240) cells were obtained from the American Type Culture Collection and cultured in Iscove’s modified Dulbecco’s medium (Sigma-Aldrich) supplemented with 20% fetal bovine serum (FBS) (Sigma-Aldrich).
The apoptotic activity of the compounds was determined using the phycoerythrin (PE) annexin V/dead cell apoptosis kit with Sytox green for flow cytometry (Invitrogen, Carlsbad, CA). Cells were grown in 12-well flat-bottom microtiter plates at an initial density 2 × 10^5 cells in 1.5-ml medium per well for 24 h. Following the incubation period, spent medium was replaced with fresh medium containing the desired concentration of the test compound and incubated for another 18 h. After trypsinization, cells were harvested by centrifuging at 250 × g for 4 min, and the cell pellet was suspended in 100 μl of binding buffer supplemented with 1 μl Sytox and 5 μl annexin V, followed by incubation at 37°C for 15 min. Samples were then diluted by adding 400-μl binding buffer, and flow cytometry was performed using a FACScalibur flow cytometer (Becton, Dickinson, Franklin Lakes, NJ), measuring the fluorescence emissions at 530 nm and 575 nm.

TIGK cells = experiment: LDH release (CytoTox 96); assay type: cell-based, human; conditions: 18 h
Description: (§1) The CytoTox 96 nonradioactive cytotoxicity assay (Promega Inc. Madison, WI) was used to determine extracellular lactate dehydrogenase activity (LDH) in TIGK, J774A.1, and HL60 cell cultures treated with the test compounds. […] After an 18-h incubation, the cell supernatant was collected by centrifugation at 250 × g for 4 min, and 50 μl of cell free supernatant was transferred into wells of a fresh 96-well microtiter plate. Subsequently, 50 μl of the LDH substrate was added in each well and incubated at room temperature for 30 min. Reactions were stopped by adding 50 μl of the stop solution according to the manufacturer’s protocol, and the endpoint was measured by determining optical density at 490 nm. Cells treated with culture medium containing 0.1% DMSO or with medium alone served as negative controls, and cells incubated with 15-μl lysis buffer (supplied by manufacturer) for 1 h served as a positive control for lysis. All samples were tested in triplicate.

HL60 cells = experiment: LDH release (CytoTox 96); assay type: cell-based, human; conditions: 18 h
Description: as §1

S. gordonii = experiment: microbicidal activity: growth curve in medium with compound; assay type: cell-based, Streptococcus gordonii; conditions: 40 μM, 24 h, OD600
Description: To confirm that N7, N17, and V8 function by inhibiting P. gingivalis adherence to S. gordonii rather than acting as antibacterial agents, the microbicidal activity of the compounds was determined by growing the organisms in medium containing 40 μM of each compound for 24 h. […] The structures of compounds N7, N17, and V8 are shown in Fig. 3A, B, and C, respectively. In addition, overlays of compound N17 with the NITVK motif and compound V8 with the VXXLL motif of Ag I/II are shown in Fig. 3D and E, respectively.
FIG 2 S. gordonii (A) and P. gingivalis (B) were grown for 24 h in medium containing 40 μM of each compound, and growth was quantified at various time points by measuring the OD600 for each culture. One-way analysis of variance (ANOVA) was performed to determine statistical significance.
P. gingivalis ATCC 33277 was cultured in reduced Trypticase soy broth-yeast extract (TSBY) medium comprised of 30 g/liter TSB (Difco Laboratories Inc., Detroit, MI), 5% (wt/vol) yeast extract supplemented with 5 mg/liter hemin and 1 mg/liter menadione under anaerobic conditions (10% CO2, 10% H2, and 80% N2) at 37°C for 48 h. Reduced TSBY medium was prepared by incubating the medium under anaerobic conditions at 37°C for 24 h prior to bacterial inoculation. Streptococcus gordonii DL1 was grown in brain heart infusion (BHI) (Difco Laboratories Inc.) broth supplemented with 5% (wt/vol) yeast extract under anaerobic conditions as described above.

Row | Compound | dose-dependent inhibition of P. gingivalis adherence and biofilm formation [1] | inhibition at 40 µM [1] [%] | Early apoptosis (%) (J774A.1 cells; 5 μM) | Late apoptosis/necrosis (%) (J774A.1 cells; 5 μM) | Live cells (%) (J774A.1 cells; 5 μM) | Early apoptosis (%) (J774A.1 cells; 20 μM) | Late apoptosis/necrosis (%) (J774A.1 cells; 20 μM) | Live cells (%) (J774A.1 cells; 20 μM) | Early apoptosis (%) (J774A.1 cells; 40 μM) | Late apoptosis/necrosis (%) (J774A.1 cells; 40 μM) | Live cells (%) (J774A.1 cells; 40 μM) | LDH release (TIGK cells; 40 μM) | LDH release (HL60 cells; HL-60 cells, 20 μM and 40 μM) | growth curve versus medium alone or 0.1% DMSO (S. gordonii) | IC50 ([1]; Porphyromonas gingivalis, read-out: 50% inhibitory concentration (IC50) of P. gingivalis adherence in vitro) [µM] | LDH release (TIGK cells; versus negative controls) | LDH release (HL60 cells; HL-60 cells, 5, 20 and 40 μM)
1 | Cl.N=c1n(CCN2CCCCC2)c2ccccc2n1CC(O)COc1ccc(Cl)cc1 (stereo not drawn) [N7, 1-(4-chlorophenoxy)-3-{2-imino-3-[2-(piperidin-1-yl)ethyl]-2,3-dihydro-1H-1,3-benzodiazol-1-yl}propan-2-ol hydrochloride] | inhibited P. gingivalis adherence and biofilm formation in a dose-dependent manner | 40 | 2.5 | 5.5 | 83.9 | 16.9 | 46.6 | 33.4 | 24.9 | 38.0 | 36.2 | significant increase in LDH release | significant increases | not significantly different |  |  | 
2 | O=C(Nc1ccccc1O)c1cccc(N2C(=O)c3ccc(C(=O)Nc4ccccc4O)cc3C2=O)c1 [N17, N-(2-hydroxyphenyl)-2-{3-[(2-hydroxyphenyl)carbamoyl]phenyl}-1,3-dioxo-2,3-dihydro-1H-isoindole-5-carboxamide] | inhibited P. gingivalis adherence and biofilm formation in a dose-dependent manner | 60 | 1.0 | 6.1 | 87.8 | 1.0 | 6.9 | 85.3 | 1.2 | 6.6 | 87.3 |  |  | not significantly different | ~18 | did not significantly differ from the negative controls | no significant effect
3 | Cc1cc([C@H]2CCCN(CC(=O)NC3(C#N)CCCC3)C2)n[nH]1 [V8, N-(1-cyanocyclopentyl)-2-[3-(5-methyl-1H-pyrazol-3-yl)piperidin-1-yl] acetamide] | inhibited P. gingivalis adherence and biofilm formation in a dose-dependent manner | ≥ 40 | 1.1 | 8.3 | 85.1 | 0.9 | 8.0 | 83.4 |  | 9.1 | 84.3 |  |  | not significantly different |  | did not significantly differ from the negative controls | no significant effect
